For data set [1], the system named is calcium channels in SH—SY5Y cells. Put plainly: Effects on calcium channels (K+ stimulated calcium entry, Fluo-4). It is filed as cell-based, human. To be noted: 60 mM K+, 10 min preincubation. The protocol:
Effects on Calcium Channels
We have studied if these compounds are able to block calcium channels. Calcium entry in SH—SY5Y cells was stimulated with 60 mM K^+ in 96-well plates. Cells were plated at 5·10^4 for each well, at least, 48 hours before the experiment. For measurement of intracellular calcium, SH—SY5Y were washed with Krebs/HEPES buffer, pH 7.4. and cells were loaded with the calcium indicator dye Fluo-4 (Molecular Probes) for 40 min at 37° C. followed by 15 min post incubation at room temperature. Intracellular calcium was measured fluorometrically in a Fluostar optima plate reader (BMG), with excitation wavelengths set at 485 nm and emission at 520 nm. The tested compounds were preincubated with the cells for 10 minutes before the depolarization with K^+.

In data set [2] the test system is human neuroblastoma cell line SH—SY5Y. The data set is described as follows: Toxicity measurement (LDH) in SH-SY5Y cells. It is filed as cell-based. To be noted: 24 hours exposure. The protocol:
The cytotoxicity effect of the molecules was tested in the human neuroblastoma cell line SH—SY5Y. These cells were cultured in 96-well plates in minimum essential medium, Han's F12 medium, supplemented with 10% fetal bovine serum, 1% glutamine and 1% penicillin/streptomycin, and grown in. a 5% CO2 humidified incubator at 37° C.
The cells were plated at 10^4 cells for each well, at least, 48 hours before the toxicity measure. Cells were exposed for 24 hours to the compounds at different concentrations (from 10^−5 to 10^−9), quantitative assessment of cell death was made by measurement of the intracellular enzyme lactate dehydrogenase (LDH) (citotoxicity detection kit, Roche). The cuantity of LDH was evaluated in a microplate reader Anthos 2010, at 492 and 620 nm. Controls were taken as 100% viability.

For data set [3], the system named is SH—SY5Y cells exposed to β-amyloid fragment 25-35. Put plainly: Effects on β-amyloid toxicity (fragment 25-35, LDH viability). To be noted: 1 hour pretreatment, Aβ 25-35 at 200 μM, 24 hours. It is filed as cell-based, human. The protocol:
Effects on β-Amiloid Toxicity
We have tested if some of these molecules interfere with amyloid peptide toxicity. Cells SH—SY5Y were cultured in 96-well plates as toxicity experiments. Cells were pretreated for 1 hour with the compounds at different concentrations (from 10^−5 to 10^−9), immediately neuronal death is induced adding synthetic peptide β-amyloid, fragment 25-35 (A25-35) at 200 μM. 24 hours later cell viability was assessed with the LDH assay; results are reported relative to untreated wells.

The target of a further data set is AChE peripheral site (Homo sapiens, UniProt P22303). The data set is described as follows: Propidium competition (fluorescence). It is filed as binding. The conditions noted are these: 20 μM propidium iodide, AChE incubated at least 6 hours with compound. The protocol: Fluorescence was measured in a Fluostar optima plate reader (BMG). Measurements were carried out in 100 μl solution volume, in 96-well plates. The buffer used was 1 mM Tris/HCl, pH 8.0. […] AChE was incubated, at least 6 hours, with the molecules at different concentrations. 20 μM propidium iodide was added 10 min before fluorescence measurement.

Data set [4] deals with T1, AChE from bovine erythrocytes (Bos taurus, UniProt P23795).
T1 construct: 0.02 units AChE (Sigma Chemical Co. from bovine erythrocytes); purchased Sigma Chemical Co; host or cells: bovine erythrocytes
T1 sequence (P23795 31-614 isoform P23795-2 limits assumed): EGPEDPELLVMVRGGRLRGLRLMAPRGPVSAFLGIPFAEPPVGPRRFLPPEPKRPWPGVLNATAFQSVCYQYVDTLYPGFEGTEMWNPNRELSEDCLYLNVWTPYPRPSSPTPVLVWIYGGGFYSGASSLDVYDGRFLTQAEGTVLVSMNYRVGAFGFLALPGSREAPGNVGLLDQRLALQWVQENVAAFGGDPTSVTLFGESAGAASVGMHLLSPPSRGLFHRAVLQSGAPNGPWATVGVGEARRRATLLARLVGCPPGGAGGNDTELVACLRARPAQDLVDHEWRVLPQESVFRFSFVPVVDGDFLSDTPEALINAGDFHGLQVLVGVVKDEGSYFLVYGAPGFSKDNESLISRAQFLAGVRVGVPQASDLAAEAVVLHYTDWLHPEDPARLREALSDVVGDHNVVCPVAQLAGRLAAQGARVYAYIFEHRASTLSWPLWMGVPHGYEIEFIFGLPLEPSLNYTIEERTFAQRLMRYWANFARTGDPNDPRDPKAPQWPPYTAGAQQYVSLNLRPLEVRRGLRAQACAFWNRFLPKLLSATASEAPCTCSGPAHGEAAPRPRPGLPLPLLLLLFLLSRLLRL
Put plainly: Acetylcholinesterase (AChE) inhibition (from bovine erythrocytes), Ellman method at 30° C., Digiscan 340T. The conditions noted are these: bovine erythrocytes AChE, 30° C., 5 min preincubation; read-out: IC50 AchE. It is filed as biochemical. The protocol:
Acetylcholinesterase (AChE) Inhibition (from Bovine Erythrocytes)
AChE inhibitory activity was evaluated at 30° C. by the colorimetric method reported by Ellman [Ellman, G. L.; Courtney, K. D.; Andres, B.; Featherstone, R. M. Biochem. Pharmacol. 1961, 7, 88-95]. The assay solution consisted of 0.1 M phosphate buffer pH 8, 0.3 mM 5,5′-dithiobis (2-nitrobenzoic acid) (DTNB, Ellman's reagent), 0.02 units AChE (Sigma Chemical Co. from bovine erythrocytes), and 0.5 mM acetylthiocholine iodide as the substrate of the enzymatic reaction. The compounds tested were added to the assay solution and preincubated with the enzyme for 5 min at 30° C. After that period, the substrate was added. The absorbance changes at 405 nm were recorded for 5 min with a microplate reader Digiscan 340T, the reaction rates were compared, and the percent inhibition due to the presence of test compounds was calculated. The reaction rate was calculated with, at least, triplicate measurements, and the percent inhibition due to the presence of test compound was calculated relative to the compound-free control.
Background: Ellman's reagent forms a yellow product with free thiols.

In a further data set the target is T2, BuChE from human serum (Homo sapiens, UniProt P06276).
T2 construct: The assay solution consisted of 0.01 units BuChE from human serum; from tissue; host or cells: human serum
Put plainly: Butyrylcholinesterase (BuChE) inhibition (from human serum). It is filed as biochemical. The conditions noted are these: human serum BuChE, 30° C., 10 min preincubation; read-out: IC50 BuChE. The protocol: Butyrylcholinetersae (BuChE) Inhibition (from Human Serum)
BuChE inhibitory activity was evaluated at 30° C. by the colorimetric method reported by Ellman (Ellman, G. L.; Courtney, K. D.; Andres, B.; Featherstone, R. M. Biochem. Pharmacol. 1961, 7, 88-95]. The assay solution consisted of 0.01 units BuChE from human serum, 0.1 M sodium phosphate buffer pH 8, 0.3 mM 5,5′-dithiobis (2-nitrobenzoic acid) (DTNB, Ellman's reagent), and 0.5 mM butylthiocholine iodide as the substrate of the enzymatic reaction. Enzyme activity was determined by measuring the absorbance at 405 nm during 5 minutes with a microplate reader Digiscan 340T. The tested compounds were preincubated with the enzyme for 10 minutes at 30° C. The reaction rate was calculated with, at least, triplicate measurements.

For data set [5], the system named is SH—SY5Y cells exposed to H2O2. The data set is described as follows: Antioxidant activity (H2O2 exposure, LDH viability). To be noted: 1 hour pretreatment, 24 hours H2O2, LDH. It is filed as cell-based, human. The protocol:
In order to evaluate if these compounds have antioxidant properties cells SH—SY5Y were exposed 24 hours to […] H2O2, previously these cells were pretreated for 1 hour with the molecules at different concentrations (from 10^−5 to 10^−9). The antioxidant activity is evaluated measuring cellular viability, using the LDH assay. Cells SH—SY5Y were cultured in 96-well plates as toxicity experiments.

T2 sequence (P06276 29-602): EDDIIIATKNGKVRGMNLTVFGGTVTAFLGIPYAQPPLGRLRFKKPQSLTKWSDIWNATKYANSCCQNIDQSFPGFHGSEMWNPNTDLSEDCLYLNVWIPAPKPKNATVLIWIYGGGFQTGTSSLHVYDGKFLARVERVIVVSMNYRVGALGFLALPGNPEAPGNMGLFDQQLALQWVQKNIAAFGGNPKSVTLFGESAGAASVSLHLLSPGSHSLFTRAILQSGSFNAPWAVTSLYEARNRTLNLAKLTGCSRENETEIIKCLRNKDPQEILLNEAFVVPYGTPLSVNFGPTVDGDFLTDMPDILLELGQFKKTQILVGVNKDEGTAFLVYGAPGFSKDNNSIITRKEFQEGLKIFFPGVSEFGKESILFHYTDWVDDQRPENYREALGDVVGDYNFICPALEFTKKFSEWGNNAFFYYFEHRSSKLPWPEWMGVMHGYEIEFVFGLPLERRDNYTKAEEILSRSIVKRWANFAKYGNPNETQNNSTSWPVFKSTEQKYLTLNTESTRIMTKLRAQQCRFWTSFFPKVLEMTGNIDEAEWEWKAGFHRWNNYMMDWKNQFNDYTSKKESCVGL
Chain of AChE peripheral site (P22303 32-614): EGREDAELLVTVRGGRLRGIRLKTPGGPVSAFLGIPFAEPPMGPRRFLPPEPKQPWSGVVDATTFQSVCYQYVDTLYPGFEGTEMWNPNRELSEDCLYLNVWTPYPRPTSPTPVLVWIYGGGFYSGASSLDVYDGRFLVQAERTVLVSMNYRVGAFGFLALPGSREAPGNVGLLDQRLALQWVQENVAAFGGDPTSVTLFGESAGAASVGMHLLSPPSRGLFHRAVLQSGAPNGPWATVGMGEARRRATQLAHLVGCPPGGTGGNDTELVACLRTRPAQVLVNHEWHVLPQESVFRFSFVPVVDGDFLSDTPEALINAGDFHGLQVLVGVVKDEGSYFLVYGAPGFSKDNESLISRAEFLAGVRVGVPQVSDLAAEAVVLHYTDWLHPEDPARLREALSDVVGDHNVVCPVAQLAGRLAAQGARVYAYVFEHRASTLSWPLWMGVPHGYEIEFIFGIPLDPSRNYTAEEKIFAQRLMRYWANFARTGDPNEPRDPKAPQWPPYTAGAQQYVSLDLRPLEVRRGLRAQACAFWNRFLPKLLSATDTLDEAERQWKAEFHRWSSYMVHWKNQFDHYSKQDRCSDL

The term IC50 denotes the concentration at which inhibition is half-maximal. For the molecule `O=C1c2ccccc2C(=O)N1CCCCCCCNc1c2ccccc2nc2ccccc12` [Compound 7, 2-[7-(Acridin-9-ylamino)-heptyl]-isoindole-1,3-dione], the Calcium channel blockade in data set [1] stood at 10 µM. Moreover, the Toxicity in data set [2] was over 100 µM. Also, in data set [3], the “inhibition of Aβ(25-35) toxicity” value was found to be 1 µM. In addition, at AChE peripheral site, the Propidium competition came to 100 µM. Further, the IC50 was 1500 nM in data set [4] and 700 nM at BuChE from human serum.

As for `CN(CCCNc1c2c(nc3ccccc13)CCCC2)CCCNc1c2ccccc2nc2ccccc12` [Compound 21], the Toxicity in data set [2] was over 100 µM. In addition, the Antioxidant activity in data set [5] came to 10 µM. Besides, the Propidium competition at AChE peripheral site was 1000 µM. Also, the IC50 in data set [4] amounted to 4 nM; at BuChE from human serum, 70 nM.
